These results are taken from patent publication US9776995B2, “Bicyclic sulfonamide compounds as sodium channel inhibitors” (AMGEN INC., priority 2013, dated 2017).

Molecules are shown by their SMILES.

The IC50 is the concentration needed to halve the response being measured. A low value points to higher potency.

In one test the target is Nav 1.7 (Homo sapiens (Human), UniProt Q15858). Description: Nav 1.7 in vitro PX assay (PatchXpress whole cell voltage clamp).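 Note: holding potential set for 20 to 50% inactivation, sodium current evoked by a 20 ms step to −10 mV, peak current inhibition read after compound exposure, 3–5 cells per concentration.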 The class given is cell-based. The following applies: HEK 293 cells stably transfected with human Nav1.7; PatchXpress; partially inactivated state.
Nav 1.7, sequence (Q15858 whole entry): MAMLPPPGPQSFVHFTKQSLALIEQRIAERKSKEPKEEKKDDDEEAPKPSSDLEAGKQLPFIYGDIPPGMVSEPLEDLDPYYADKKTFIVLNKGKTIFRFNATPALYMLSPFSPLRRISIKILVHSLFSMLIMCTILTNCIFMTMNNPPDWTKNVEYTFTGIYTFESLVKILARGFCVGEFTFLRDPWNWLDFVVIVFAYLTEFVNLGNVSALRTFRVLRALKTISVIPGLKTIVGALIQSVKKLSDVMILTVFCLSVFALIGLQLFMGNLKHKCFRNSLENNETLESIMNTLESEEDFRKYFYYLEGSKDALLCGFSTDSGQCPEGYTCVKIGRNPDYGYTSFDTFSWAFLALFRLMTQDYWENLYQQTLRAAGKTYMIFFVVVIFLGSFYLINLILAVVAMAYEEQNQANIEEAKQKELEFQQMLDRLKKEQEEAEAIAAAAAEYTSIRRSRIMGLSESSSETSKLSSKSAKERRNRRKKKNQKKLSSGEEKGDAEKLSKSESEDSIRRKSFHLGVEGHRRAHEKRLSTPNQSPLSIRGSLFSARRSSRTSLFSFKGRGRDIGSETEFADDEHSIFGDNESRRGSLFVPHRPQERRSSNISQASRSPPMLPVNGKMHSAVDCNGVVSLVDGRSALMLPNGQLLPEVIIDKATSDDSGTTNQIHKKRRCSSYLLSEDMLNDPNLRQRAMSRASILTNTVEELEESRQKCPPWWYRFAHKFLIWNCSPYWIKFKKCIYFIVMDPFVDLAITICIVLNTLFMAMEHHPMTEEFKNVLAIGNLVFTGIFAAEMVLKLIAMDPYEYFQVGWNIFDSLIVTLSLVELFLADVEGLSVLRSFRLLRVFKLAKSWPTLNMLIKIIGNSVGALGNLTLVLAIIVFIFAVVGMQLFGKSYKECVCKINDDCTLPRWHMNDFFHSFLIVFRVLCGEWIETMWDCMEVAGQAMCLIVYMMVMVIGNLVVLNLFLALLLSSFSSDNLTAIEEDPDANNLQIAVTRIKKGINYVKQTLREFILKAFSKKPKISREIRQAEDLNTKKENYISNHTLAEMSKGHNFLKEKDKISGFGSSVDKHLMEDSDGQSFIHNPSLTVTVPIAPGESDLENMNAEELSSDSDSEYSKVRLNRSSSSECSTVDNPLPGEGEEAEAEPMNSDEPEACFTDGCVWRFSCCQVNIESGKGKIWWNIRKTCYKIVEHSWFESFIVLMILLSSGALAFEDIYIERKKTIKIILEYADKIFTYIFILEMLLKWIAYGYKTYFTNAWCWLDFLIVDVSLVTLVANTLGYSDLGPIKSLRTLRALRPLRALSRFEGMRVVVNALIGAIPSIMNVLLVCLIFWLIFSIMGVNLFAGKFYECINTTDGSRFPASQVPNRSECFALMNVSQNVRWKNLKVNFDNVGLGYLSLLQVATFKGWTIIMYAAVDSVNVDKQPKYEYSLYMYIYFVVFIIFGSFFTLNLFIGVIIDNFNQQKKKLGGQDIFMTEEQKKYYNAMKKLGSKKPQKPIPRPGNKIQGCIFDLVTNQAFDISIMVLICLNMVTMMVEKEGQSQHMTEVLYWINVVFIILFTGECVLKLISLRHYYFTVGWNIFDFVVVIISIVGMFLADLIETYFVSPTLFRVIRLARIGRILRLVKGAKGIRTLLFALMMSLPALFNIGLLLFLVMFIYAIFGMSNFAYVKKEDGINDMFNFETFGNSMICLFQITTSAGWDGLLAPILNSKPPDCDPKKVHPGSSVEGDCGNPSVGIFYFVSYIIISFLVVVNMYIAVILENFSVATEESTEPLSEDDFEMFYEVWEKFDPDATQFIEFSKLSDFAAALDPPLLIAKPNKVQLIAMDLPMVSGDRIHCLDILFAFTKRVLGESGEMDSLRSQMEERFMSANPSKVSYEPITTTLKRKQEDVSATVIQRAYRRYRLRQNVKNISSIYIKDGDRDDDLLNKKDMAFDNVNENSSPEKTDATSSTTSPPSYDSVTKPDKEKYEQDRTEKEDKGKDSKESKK
Consider `COc1cc(-c2cccc(Cl)c2)c(Cl)cc1-c1ncnc2cc(S(=O)(=O)Nc3ncccn3)ccc12` [Example 437, 4-(2,3′-DICHLORO-5-METHOXY-[1,1′-BIPHENYL]-4-YL)-N-(PYRIMIDIN-2-YL)QUINAZOLINE-7-SULFONAMIDE], for which the midpoint of inhibition, the IC50, lay at 72 nM. Same read-out and setting: the figure for `COc1cc(-c2cc(F)cc(Cl)c2)c(F)cc1-c1cn(C)c(=O)c2cc(S(=O)(=O)Nc3ccon3)ccc12` [Example 453, 4-(3′-CHLORO-2,5′-DIFLUORO-5-METHOXY-[1,1′-BIPHENYL]-4-YL)-N-(ISOXAZOL-3-YL)-2-METHYL-1-OXO-1,2-DIHYDROISOQUINOLINE-7-SULFONAMIDE] is 48 nM; for `COc1cc(-c2ccc(Cl)c(C)c2)c(F)cc1-c1cn(C)c(=O)c2cc(S(=O)(=O)Nc3ccon3)ccc12` [Example 454, 4-(4′-CHLORO-2-FLUORO-5-METHOXY-3′-METHYL-[1,1′-BIPHENYL]-4-YL)-N-(ISOXAZOL-3-YL)-2-METHYL-1-OXO-1,2-DIHYDROISOQUINOLINE-7-SULFONAMIDE] it is 51 nM. The same measure, in the same setting: the figure for `COc1cc(-c2cccc(C(F)(F)F)c2)c(F)cc1-c1c2ccc(S(=O)(=O)Nc3ccon3)cc2cc(=O)n1C` [Example 546, 1-(2-fluoro-5-methoxy-3′-(trifluoromethyl)-4-biphenylyl)-N-3-isoxazolyl-2-methyl-3-oxo-2,3-dihydro-6-isoquinolinesulfonamide] is 29 nM. In the case of `COc1cc(-c2cccc(F)c2)c(Cl)cc1-c1c(C)nnc2cc(S(=O)(=O)Nc3ccon3)ccc12` (atropisomer, axis not shown; (M)) [Example 441, (M)-4-(2-chloro-3′-fluoro-5-methoxy-[1,1′-biphenyl]-4-yl)-N-(isoxazol-3-yl)-3-methylcinnoline-7-sulfonamide], the IC50 was 52 nM.

For `CCc1nnc2cc(S(=O)(=O)Nc3ccon3)ccc2c1-c1cc(Cl)c(-c2cccc(F)c2)cc1OC` (atropisomer, axis not shown; (M)) [Example 443, (M)-4-(2-chloro-3′-fluoro-5-methoxy-[1,1′-biphenyl]-4-yl)-3-ethyl-N-(isoxazol-3-yl)cinnoline-7-sulfonamide], the IC50 is 87 nM. The same measure, in the same setting: to `COc1cc(F)c(-c2ccc(F)nc2)cc1-c1nccc2cc(S(=O)(=O)Nc3ccon3)ccc12` [Example 497, 1-(4-fluoro-5-(6-fluoro-3-pyridinyl)-2-methoxyphenyl)-N-3-isoxazolyl-6-isoquinolinesulfonamide] belongs 479 nM; to `COc1ccc(F)c(-c2cc(OC)c(-c3ncnc4cc(S(=O)(=O)Nc5ccon5)ccc34)cc2C)c1` [Example 561, 4-(2′-fluoro-5,5′-dimethoxy-2-methyl-4-biphenylyl)-N-3-isoxazolyl-7-quinazolinesulfonamide], 89 nM.

In the case of `CCc1cnc2cc(S(=O)(=O)Nc3ccon3)ccc2c1-c1cc(Cl)c(-c2cccc(F)c2)cc1OC` (atropisomer, axis not shown; (P)) [Example 333, (P)-4-(2-chloro-3′-fluoro-5-methoxy-[1,1′-biphenyl]-4-yl)-3-ethyl-N-(isoxazol-3-yl)quinoline-7-sulfonamide], the 50% inhibitory concentration (IC50) turned out to be 591 nM.

`COc1cc(-c2cccc(Cl)c2)cc(F)c1-c1nccc2cc(S(=O)(=O)Nc3ccon3)ccc12` [Example 538, 1-(3′-chloro-3-fluoro-5-methoxy-4-biphenylyl)-N-3-isoxazolyl-6-isoquinolinesulfonamide] returned a concentration for half-maximal inhibition (IC50) of 298 nM.

In turn, `COc1cc(-c2cccc(F)c2)c(Cl)cc1-c1[nH]c(=O)cc2cc(S(=O)(=O)Nc3ccon3)ccc12` [Example 394, 1-(2-chloro-3′-fluoro-5-methoxy-[1,1′-biphenyl]-4-yl)-N-(isoxazol-3-yl)-3-oxo-2,3-dihydroisoquinoline-6-sulfonamide 2,2,2-trifluoroacetate] returned an IC50 of 41 nM. Same read-out and setting: to `COc1cc(F)c(-c2ccccn2)cc1-c1nccc2cc(S(=O)(=O)Nc3ccon3)ccc12` [Example 399] belongs 28400 nM; to `COc1cc(-c2cccc(C(F)(F)F)c2)c(F)cc1-c1c2ccc(S(=O)(=O)Nc3ccon3)cc2cc(=O)n1C` (atropisomer, axis not shown; (P)) [Example 551, (P)-1-(2-fluoro-5-methoxy-3′-(trifluoromethyl)-4-biphenylyl)-N-3-isoxazolyl-2-methyl-3-oxo-2,3-dihydro-6-isoquinolinesulfonamide], 28 nM.

Staying with this test, now noted: PatchXpress (PX).
On to `COc1cc(-c2cc(F)cc(F)c2)c(C)cc1-c1nccc2cc(S(=O)(=O)Nc3ccon3)ccc12` [Example 272, 1-(3′,5′-difluoro-5-methoxy-2-methyl-4-biphenylyl)-N-3-isoxazolyl-6-isoquinolinesulfonamide], for which half-maximal inhibition (IC50) required 31.9 nM. Still for that read-out and setting: the figure for `COc1cc(C(F)(F)F)c(C)cc1-c1nccc2cc(S(=O)(=O)Nc3ccon3)ccc12` [Example 60, N-(ISOXAZOL-3-YL)-1-(2-METHOXY-5-METHYL-4-(TRIFLUOROMETHYL)PHENYL)ISOQUINOLINE-6-SULFONAMIDE] is 189 nM; for `COc1cc(Cl)c(C)cc1-c1nccc2cc(S(=O)(=O)Nc3ccon3)ccc12` [Example 248, 1-(4-chloro-2-methoxy-5-methylphenyl)-N-3-isoxazolyl-6-isoquinolinesulfonamide] it is 187 nM.

`COc1cc(-c2cccc(C(F)(F)F)c2)c(C)cc1-c1ncnc2cc(S(=O)(=O)Nc3ccon3)ccc12` [Example 265, N-3-isoxazolyl-4-(5-methoxy-2-methyl-3′-(trifluoromethyl)-4-biphenylyl)-7-quinazolinesulfonamide]: half-maximal inhibition (IC50) required 18.4 nM. Still for that read-out and setting: to `COc1cc(Cl)c(C)cc1-c1ncnc2cc(S(=O)(=O)Nc3ccon3)ccc12` [Example 247, 4-(4-chloro-2-methoxy-5-methylphenyl)-N-3-isoxazolyl-7-quinazolinesulfonamide] belongs 243 nM. Same read-out and setting: the figure for `COc1cc(-c2cc(C)cc(F)c2)c(C)cc1-c1nccc2cc(S(=O)(=O)Nc3ccon3)ccc12` [Example 273, 1-(3′-fluoro-5-methoxy-2,5′-dimethyl-4-biphenylyl)-N-3-isoxazolyl-6-isoquinolinesulfonamide] is 73.3 nM; for `COc1cc(-c2cccc(C)c2)c(C)cc1-c1nccc2cc(S(=O)(=O)Nc3ccon3)ccc12` [Example 276, N-3-isoxazolyl-1-(5-methoxy-2,3′-dimethyl-4-biphenylyl)-6-isoquinolinesulfonamide] it is 169 nM; for `COc1cc(-c2ccc(C)c(Cl)c2)c(C)cc1-c1ncnc2cc(S(=O)(=O)Nc3ccon3)ccc12` [Example 267, 4-(3′-chloro-5-methoxy-2,4′-dimethyl-4-biphenylyl)-N-3-isoxazolyl-7-quinazolinesulfonamide] it is 28.7 nM.

Staying with this test, now noted: in-vitro Nav 1.7 PX (PatchXpress).
Consider `COc1cc(-c2cc(C)cc(F)c2)c(F)cc1-c1ncnc2cc(S(=O)(=O)Nc3ccon3)ccc12` [Example 301, 4-(2,3′-difluoro-5-methoxy-5′-methyl-4-biphenylyl)-N-3-isoxazolyl-7-quinazolinesulfonamide], for which the concentration for half-maximal inhibition (IC50) came out at 32 nM. Molecule `COc1nc(-c2cc(F)cc(F)c2)c(C#N)cc1-c1cccc2cc(S(=O)(=O)Nc3ccncn3)ccc12` [Example 64] showed an IC50 of 91 nM. As to `CCOc1ccc(-c2cc(OC)c(-c3ncnc4cc(S(=O)(=O)Nc5ccon5)ccc34)cc2F)cc1C` [Example 304, 4-(4′-ethoxy-2-fluoro-5-methoxy-3′-methyl-4-biphenylyl)-N-3-isoxazolyl-7-quinazolinesulfonamide], the IC50 was determined as 610 nM. This IC50 is about 6.7-fold higher than that of the molecule before. Same read-out and setting: the figure for `COc1cc(-c2cc(Cl)cc(Cl)c2)c(F)cc1-c1ncnc2cc(S(=O)(=O)Nc3ccon3)ccc12` [Example 300, 4-(3′,5′-dichloro-2-fluoro-5-methoxy-4-biphenylyl)-N-3-isoxazolyl-7-quinazolinesulfonamide] is 26 nM; for `COc1cc(-c2cc(C)cc(Cl)c2)c(F)cc1-c1ncnc2cc(S(=O)(=O)Nc3ccon3)ccc12` [Example 297, 4-(3′-chloro-2-fluoro-5-methoxy-5′-methyl-4-biphenylyl)-N-3-isoxazolyl-7-quinazolinesulfonamide] it is 74 nM; for `COc1cc(-c2ccc(C)c(Cl)c2F)c(F)cc1-c1ncnc2cc(S(=O)(=O)Nc3ccon3)ccc12` [Example 296, 4-(3′-chloro-2,2′-difluoro-5-methoxy-4′-methyl-4-biphenylyl)-N-3-isoxazolyl-7-quinazolinesulfonamide] it is 105 nM. The same measure, in the same setting: the figure for `COc1cc(-c2cc(F)cc(Cl)c2)c(C)cc1-c1nccc2cc(S(=O)(=O)Nc3ccon3)ccc12` [Example 285, 1-(3′-chloro-5′-fluoro-5-methoxy-2-methyl-4-biphenylyl)-N-3-isoxazolyl-6-isoquinolinesulfonamide] is 58 nM; for `COc1cc(-c2ccc(Cl)c(F)c2)ccc1-c1nccc2cc(S(=O)(=O)Nc3ncccn3)ccc12` [Example 293, 1-(4′-chloro-3′-fluoro-3-methoxy-4-biphenylyl)-N-2-pyrimidinyl-6-isoquinolinesulfonamide] it is 407 nM. On the same count and under the same terms, the figure for `COc1cc(-c2cccc(F)c2)c(Cl)cc1-c1nccc2cc(S(=O)(=O)Nc3ncc(F)cn3)ccc12` [Example 294, 1-(2-chloro-3′-fluoro-5-methoxy-4-biphenylyl)-N-(5-fluoro-2-pyrimidinyl)-6-isoquinolinesulfonamide] is 256 nM; for `COc1cc(-c2cc(C)ccc2F)c(C)cc1-c1ncnc2cc(S(=O)(=O)Nc3ccon3)ccc12` [Example 307, 4-(2′-fluoro-5-methoxy-2,5′-dimethyl-4-biphenylyl)-N-3-isoxazolyl-7-quinazolinesulfonamide] it is 113 nM; for `COc1cc(-c2cccc(F)c2)c(Cl)cc1-c1cccc2cc(S(=O)(=O)Nc3ccon3)ccc12` [Example 291, 5-(2-chloro-3′-fluoro-5-methoxy-4-biphenylyl)-N-3-isoxazolyl-2-naphthalenesulfonamide] it is 1160 nM. `COc1cc(-c2cc(Cl)ccc2F)c(C)cc1-c1ncnc2cc(S(=O)(=O)Nc3ccon3)ccc12` [Example 308, 4-(5′-chloro-2′-fluoro-5-methoxy-2-methyl-4-biphenylyl)-N-3-isoxazolyl-7-quinazolinesulfonamide] gave a 50% inhibitory concentration (IC50) of 56 nM. Compared with the last molecule, the IC50 is about 21-fold lower.
